Where two headings read alike, the source gives them in different places.
Legend:
[1] = molecular target: L25A PETNR (Enterobacter cloacae, UniProt P71278, L26A); conditions: for kobs1 / A2 (amplitude of kobs2 out of total absorbance change) / kobs2: pH 7.0; for ΔCp^⧧ / ΔHT0^⧧ / ΔST0^⧧: fit of kobs1 (5–40 °C) to eq 1
[2] = molecular target: WT PETNR (Enterobacter cloacae, UniProt P71278); assay: Stopped-flow FMN reduction (reductive half-reaction, hydride transfer) of WT PETNR by coenzyme; conditions: for kobs1: 10 mM NADPH or 25 mM NADH, pH 7.0; for ΔCp^⧧ / ΔHT0^⧧ / ΔST0^⧧: fit of kobs1 (5–40 °C) to eq 1
[3] = molecular target: L25I PETNR (Enterobacter cloacae, UniProt P71278, L26I); conditions: for kobs1 / A2 (amplitude of kobs2 out of total absorbance change) / kobs2: 10 mM NADPH or 25 mM NADH, pH 7.0; for ΔCp^⧧ / ΔHT0^⧧ / ΔST0^⧧: fit of kobs1 (5–40 °C) to eq 1
[4] = 5 °C, 10 mM NADPH or 25 mM NADH
[5] = 10 °C, 10 mM NADPH or 25 mM NADH
[6] = 15 °C, 10 mM NADPH or 25 mM NADH
[7] = 20 °C, 10 mM NADPH or 25 mM NADH
[8] = 25 °C, 10 mM NADPH or 25 mM NADH
[9] = 30 °C, 10 mM NADPH or 25 mM NADH
[10] = 35 °C, 10 mM NADPH or 25 mM NADH
[11] = 40 °C, 10 mM NADPH or 25 mM NADH
[12] = deuterated minus protiated coenzyme, T0 = 298 K
[13] = 25 °C, 50 mM potassium phosphate pH 7.0, 20 μM enzyme
[14] = 25 °C, 50 mM potassium phosphate pH 7.0, 20 μM enzyme, fast phase
[15] = 40 °C, third phase, 10 mM NADPH or 25 mM NADH

WT PETNR, sequence (P71278 entry or part of it): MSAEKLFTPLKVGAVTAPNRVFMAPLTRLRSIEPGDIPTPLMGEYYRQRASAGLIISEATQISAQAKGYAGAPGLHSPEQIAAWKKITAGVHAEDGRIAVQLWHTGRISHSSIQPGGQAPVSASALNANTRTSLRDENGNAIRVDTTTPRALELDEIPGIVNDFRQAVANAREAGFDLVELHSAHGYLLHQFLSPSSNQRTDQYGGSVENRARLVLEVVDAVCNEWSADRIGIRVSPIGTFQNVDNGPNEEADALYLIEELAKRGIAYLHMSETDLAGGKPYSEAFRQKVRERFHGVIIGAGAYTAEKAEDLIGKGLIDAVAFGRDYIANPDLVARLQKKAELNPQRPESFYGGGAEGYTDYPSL
L25A PETNR, sequence (P71278 entry or part of it L26A): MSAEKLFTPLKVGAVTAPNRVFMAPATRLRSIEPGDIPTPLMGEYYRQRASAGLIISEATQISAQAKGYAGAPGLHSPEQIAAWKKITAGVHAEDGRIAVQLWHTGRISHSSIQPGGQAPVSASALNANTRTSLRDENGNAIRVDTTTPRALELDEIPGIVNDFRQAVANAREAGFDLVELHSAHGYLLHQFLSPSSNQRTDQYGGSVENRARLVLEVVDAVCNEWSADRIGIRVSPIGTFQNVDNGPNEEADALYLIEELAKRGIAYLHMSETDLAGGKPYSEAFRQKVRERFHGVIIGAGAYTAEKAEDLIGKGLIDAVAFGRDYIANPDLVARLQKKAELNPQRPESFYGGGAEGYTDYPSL
L25I PETNR, sequence (P71278 entry or part of it L26I): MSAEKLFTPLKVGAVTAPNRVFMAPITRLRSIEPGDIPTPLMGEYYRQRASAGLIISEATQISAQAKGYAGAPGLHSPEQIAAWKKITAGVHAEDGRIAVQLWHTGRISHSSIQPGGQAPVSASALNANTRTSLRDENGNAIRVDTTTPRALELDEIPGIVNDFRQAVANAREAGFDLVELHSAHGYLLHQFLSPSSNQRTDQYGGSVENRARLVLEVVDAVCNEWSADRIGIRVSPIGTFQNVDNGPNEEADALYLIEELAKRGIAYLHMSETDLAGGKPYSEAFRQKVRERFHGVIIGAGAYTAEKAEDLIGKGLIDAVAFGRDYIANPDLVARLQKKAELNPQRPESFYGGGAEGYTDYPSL

Work on `[2H][C@@H]1C=CN([C@@H]2O[C@H](COP(=O)(O)OP(=O)(O)OC[C@H]3O[C@@H](n4cnc5c(N)ncnc54)[C@H](O)[C@@H]3O)[C@@H](O)[C@H]2O)C=C1C(N)=O` [(R)-[4-^2H]-NADH] yielded a kobs1 [1, 4] of 0.162 ± 0.002 s⁻¹, a kobs1 [1, 5] of 0.211 ± 0.002 s⁻¹ and a kobs1 [1, 6] of 0.275 ± 0.004 s⁻¹. The kobs1 [1, 7] was 0.360 ± 0.004 s⁻¹, the kobs1 [1, 8] was 0.495 ± 0.002 s⁻¹ and the kobs1 [1, 9] was 0.612 ± 0.042 s⁻¹. For the same compound, the “A2 (amplitude of kobs2 out of total absorbance change)” value [1, 10] was 15.60 ± 2.69%, the kobs1 [1, 10] was 0.885 ± 0.018 s⁻¹ and the kobs2 [1, 10] was 0.11 ± 0.03 s⁻¹. The “A2 (amplitude of kobs2 out of total absorbance change)” value [1, 11] was 34.60 ± 0.91%, the kobs1 [1, 11] was 1.070 ± 0.054 s⁻¹ and the kobs2 [1, 11] was 0.17 ± 0.01 s⁻¹. The “ΔCp^⧧” value ([1]; T0 = 298 K) was 0.42 ± 0.14 kJ mol^–1 K^–1, the “ΔHT0^⧧” value ([1]; T0 = 298 K) was 40.3 ± 1.1 kJ mol^–1 and the “ΔST0^⧧” value ([1]; T0 = 298 K) was “–115.7 ± 3.8 J mol^–1 K^–1”. For the same compound, the “Isotope Effect on ΔCp^⧧” value [1, 12] was 0.13 ± 0.15 kJ mol^–1 K^–1, the “Isotope Effect on ΔHT0^⧧” value [1, 12] was 6.6 ± 1.2 kJ mol^–1 and the “Isotope Effect on ΔST0^⧧” value [1, 12] was 6.4 ± 4.2 J mol^–1 K^–1. For the same compound, the kobs1 ([2]; 5 °C) was 0.091 ± 0.001 s⁻¹, the kobs1 ([2]; 15 °C) was 0.156 ± 0.001 s⁻¹ and the kobs1 ([2]; 20 °C) was 0.204 ± 0.002 s⁻¹. For the same compound, the kobs1 ([2]; 25 °C) was 0.274 ± 0.001 s⁻¹, the kobs1 ([2]; 30 °C) was 0.366 ± 0.002 s⁻¹ and the kobs1 ([2]; 35 °C) was 0.499 ± 0.011 s⁻¹. The kobs1 ([2]; 40 °C) was 0.673 ± 0.005 s⁻¹, the “ΔCp^⧧” value ([2]; T0 = 298 K) was 0.46 ± 0.02 kJ mol^–1 K^–1 and the “ΔHT0^⧧” value ([2]; T0 = 298 K) was 40.3 ± 0.1 kJ mol^–1. For the same compound, the “ΔST0^⧧” value ([2]; T0 = 298 K) was “–120.4 ± 0.5 J mol^–1 K^–1”, the “Isotope Effect on ΔCp^⧧” value [2, 12] was 0.07 ± 0.04 kJ mol^–1 K^–1 and the “Isotope Effect on ΔHT0^⧧ (ΔΔHT0^⧧)” value [2, 12] was 4.9 ± 0.2 kJ mol^–1. For the same compound, the “Isotope Effect on ΔST0^⧧” value [2, 12] was 0.1 ± 0.7 J mol^–1 K^–1, the kobs1 ([3]; 5 °C) was 0.062 ± 0.001 s⁻¹ and the kobs1 ([3]; 10 °C) was 0.083 ± 0.001 s⁻¹. For the same compound, the kobs1 ([3]; 20 °C) was 0.160 ± 0.001 s⁻¹, the kobs1 ([3]; 25 °C) was 0.223 ± 0.003 s⁻¹ and the kobs1 ([3]; 30 °C) was 0.306 ± 0.005 s⁻¹. For the same compound, the kobs1 ([3]; 35 °C) was 0.418 ± 0.001 s⁻¹, the kobs1 ([3]; 40 °C) was 0.604 ± 0.066 s⁻¹ and the “ΔCp^⧧” value ([3]; T0 = 298 K) was 0.30 ± 0.07 kJ mol^–1 K^–1. The “ΔHT0^⧧” value ([3]; T0 = 298 K) was 44.9 ± 0.2 kJ mol^–1, the “ΔST0^⧧” value ([3]; T0 = 298 K) was “–106.8 ± 0.8 J mol^–1 K^–1” and the “Isotope Effect on ΔCp^⧧” value [3, 12] was “–0.03 ± 0.19 kJ mol^–1 K^–1”. For the same compound, the “Isotope Effect on ΔHT0^⧧” value [3, 12] was 2.3 ± 1.8 kJ mol^–1 and the “Isotope Effect on ΔST0^⧧” value [3, 12] was “–9.2 ± 6.0 J mol^–1 K^–1”.
`NC(=O)C1=CN([C@@H]2O[C@H](COP(=O)(O)OP(=O)(O)OC[C@H]3O[C@@H](n4cnc5c(N)ncnc54)[C@H](O)[C@@H]3O)[C@@H](O)[C@H]2O)C=CC1` [NADH] showed a kobs1 [1, 4] of 1.27 ± 0.01 s⁻¹, a kobs1 [1, 5] of 1.61 ± 0.01 s⁻¹ and a kobs1 [1, 6] of 2.03 ± 0.01 s⁻¹. It also gave a kobs1 [1, 7] of 2.63 ± 0.03 s⁻¹, a KS [1, 13] of 2294 ± 91 µM and a kred [1, 14] of 3.62 ± 0.04 s^–1. For the same compound, the “A2 (amplitude of kobs2 out of total absorbance change)” value [1, 8] was 2.29 ± 0.92%, the kobs1 [1, 8] was 3.33 ± 0.07 s⁻¹ and the kobs2 [1, 8] was 0.09 ± 0.06 s⁻¹. The “A2 (amplitude of kobs2 out of total absorbance change)” value [1, 9] was 4.93 ± 0.85%, the kobs1 [1, 9] was 4.23 ± 0.06 s⁻¹ and the kobs2 [1, 9] was 0.08 ± 0.01 s⁻¹. For the same compound, the “A2 (amplitude of kobs2 out of total absorbance change)” value [1, 10] was 12.72 ± 0.74%, the kobs1 [1, 10] was 5.20 ± 0.11 s⁻¹ and the kobs2 [1, 10] was 0.11 ± 0.01 s⁻¹. The “A3 (amplitude of third phase)” value [1, 15] was 19.01 ± 3.17%, the kobs3 [1, 15] was 1.10 ± 0.0 and the “A2 (amplitude of kobs2 out of total absorbance change)” value [1, 11] was 20.40 ± 1.48%. For the same compound, the kobs1 [1, 11] was 6.74 ± 0.37 s⁻¹, the kobs2 [1, 11] was 0.13 ± 0.01 s⁻¹ and the “ΔCp^⧧” value ([1]; T0 = 298 K) was 0.28 ± 0.05 kJ mol^–1 K^–1. The “ΔHT0^⧧” value ([1]; T0 = 298 K) was 33.6 ± 0.5 kJ mol^–1, the “ΔST0^⧧” value ([1]; T0 = 298 K) was “–122.1 ± 1.7 J mol^–1 K^–1” and the kobs1 ([2]; 5 °C) was 0.73 ± 0.01 s⁻¹. The kobs1 ([2]; 10 °C) was 0.92 ± 0.01 s⁻¹, the kobs1 ([2]; 15 °C) was 1.17 ± 0.01 s⁻¹ and the kobs1 ([2]; 20 °C) was 1.51 ± 0.01 s⁻¹. For the same compound, the KS [2, 13] was 1067 ± 13 µM, the kred [2, 14] was 2.03 ± 0.01 s^–1 and the kobs1 ([2]; 25 °C) was 1.95 ± 0.01 s⁻¹. It also gave a kobs1 ([2]; 30 °C) of 2.53 ± 0.02 s⁻¹, a kobs1 ([2]; 35 °C) of 3.30 ± 0.01 s⁻¹ and a kobs1 ([2]; 40 °C) of 4.25 ± 0.02 s⁻¹. The “ΔCp^⧧” value ([2]; T0 = 298 K) was 0.39 ± 0.03 kJ mol^–1 K^–1, the “ΔHT0^⧧” value ([2]; T0 = 298 K) was 35.4 ± 0.1 kJ mol^–1 and the “ΔST0^⧧” value ([2]; T0 = 298 K) was “–120.5 ± 0.5 J mol^–1 K^–1”. It also gave a kobs1 ([3]; 5 °C) of 0.49 ± 0.01 s⁻¹, a kobs1 ([3]; 10 °C) of 0.66 ± 0.01 s⁻¹ and a kobs1 ([3]; 15 °C) of 0.90 ± 0.01 s⁻¹. It also gave a kobs1 ([3]; 20 °C) of 1.20 ± 0.01 s⁻¹, a KS [3, 13] of 306 ± 40 µM and a kred [3, 14] of 1.74 ± 0.04 s^–1. For the same compound, the “A2 (amplitude of kobs2 out of total absorbance change)” value ([3]; 25 °C) was 6.40 ± 2.07%, the kobs1 ([3]; 25 °C) was 1.77 ± 0.06 s⁻¹ and the kobs2 ([3]; 25 °C) was 0.36 ± 0.10 s⁻¹. The “A2 (amplitude of kobs2 out of total absorbance change)” value ([3]; 30 °C) was 6.86 ± 1.61%, the kobs1 ([3]; 30 °C) was 2.39 ± 0.06 s⁻¹ and the kobs2 ([3]; 30 °C) was 0.39 ± 0.09 s⁻¹. For the same compound, the “A2 (amplitude of kobs2 out of total absorbance change)” value ([3]; 35 °C) was 8.92 ± 1.01%, the kobs1 ([3]; 35 °C) was 3.26 ± 0.07 s⁻¹ and the kobs2 ([3]; 35 °C) was 0.49 ± 0.07 s⁻¹. The “A2 (amplitude of kobs2 out of total absorbance change)” value ([3]; 40 °C) was 12.28 ± 1.93%, the kobs1 ([3]; 40 °C) was 4.26 ± 0.13 s⁻¹ and the kobs2 ([3]; 40 °C) was 0.58 ± 0.05 s⁻¹. The “ΔCp^⧧” value ([3]; T0 = 298 K) was 0.32 ± 0.18 kJ mol^–1 K^–1, the “ΔHT0^⧧” value ([3]; T0 = 298 K) was 42.7 ± 1.7 kJ mol^–1 and the “ΔST0^⧧” value ([3]; T0 = 298 K) was “–97.7 ± 6.0 J mol^–1 K^–1”.
